From patent publication US5116855A, “Rhodanine derivatives and pharmaceutical compositions” (Nisshin Flour Milling Co., Ltd., priority 1989, dated 1992)

Target: T1, aldose reductase (Rattus norvegicus, UniProt P07943)
T1 construct: the lenses were excised and homogenized in cold distilled water; from tissue; host or cells: lens of male SD rats, homogenate supernatant (crude enzyme)
Assay: Inhibitory activity against aldose reductase (crude enzyme from rat lenses, NADPH oxidation at 340 nm, D,L-glyceraldehyde substrate)
Format: biochemical
Details: aldose reductase from SD rat lenses, pH 6.2, 30° C.; for inhibition at 10 µM: pH 6.2, 10^-5 M; for inhibition at 10 µM / inhibition at 1 µM: read-out: Percentage of inhibition (%); for inhibition at 1 µM: pH 6.2, 10^-6 M
Method: The compounds of the present invention were evaluated for the inhibitory activity against aldose reductase according to the following assay procedure.
Enzyme activity was assayed according to the modification [Biochemical Pharmacology, 25, 2505 (1976)] of the method described in J. Biol. Chem., 240, 877-882 (1965).
SD strain male rats were sacrificed by decapitation, the lenses were excised and homogenized in cold distilled water. The homogenate was then centrifuged and the supernatant was used as the crude aldose reductase solution.
Separately, a 0.1 M sodium phosphate buffer (pH 6.2) containing 0.4 M ammonium sulfate was prepared at 30° C. In this buffer were dissolved the present compound, the crude aldose reductase solution and nicotinamide-adenine dinucleotide phosphate, reduced form (NADPH). The mixture was preincubated at 30° C. for 3 minutes and the reaction was initiated by addition of D,L-glyceraldehyde. In this case, the concentration of the present compound dissolved was 10^-5 M and 10^-6 M, respectively. The total amount of the assay mixture was 1.0 ml, containing 0.16 mM of NADPH, 10 mM of D,L-glyceraldehyde and 0.010-0.016 units of aldose reductase.
The inhibitory activity of the present compounds against aldose reductase was measured using each 1.0 ml of the reaction mixture containing the present compound in the above concentration. In this measurement, the rate of NADPH oxidation was followed by recording the decrease in absorbance at 340 nm. The inhibitory activity of the present compounds against aldose reductase as measured was expressed in percentage of inhibition (%) as a relative activity based on a control value.

## CC(=Cc1ccccc1OCC(=O)O)C=C1SC(=S)NC1=O [Example 68, 2-[2-Methyl-3-(4-oxo-2-thioxo-5-thiazolinylidene)-1-propenyl]phenoxyacetic acid]
  inhibition at 10 µM: 93.7%
  inhibition at 1 µM: 82.4%

## COC(=O)COc1ccc(C(C)C)cc1C=CC(C)=C1SC(=S)NC1=O (single isomer, unassigned) [62 Isomer B]
10^-5 M
  Percentage of inhibition (%): 66.7%

## COc1cc(CCC(C)=C2SC(=S)NC2=O)ccc1OCC(=O)O [Example 69, 2-Methoxy-4-[3-(4-oxo-2-thioxo-5-thiazolinylidene)butyl]-phenoxyacetic acid]
  inhibition at 10 µM: 78.4%
  inhibition at 1 µM: 46.4%

## COc1ccc(OCC(=O)O)c(C=CC(C)=C2SC(=S)NC2=O)c1 [Example 88, 4-Methoxy-2-[3-(4-oxo-2-thioxo-5-thiazolinylidene)-1-butenyl]phenoxyacetic acid]
  inhibition at 10 µM: 93.3%
  inhibition at 1 µM: 79.1%

## COC(=O)c1ccccc1NC(=O)CCCC(C)=C1SC(=S)NC1=O [Example 19, Methyl N-[5-(4-oxo-2-thioxo-5-thiazolidinylidene)hexanoyl]anthranilate]
  inhibition at 10 µM: 34.6%

## CCCCCCC(C=Cc1ccc(OCc2nn[nH]n2)cc1)=C1SC(=S)NC1=O [Example 4]
  inhibition at 10 µM: 62.6%
  inhibition at 1 µM: 29.9%

## CC(C=Cc1cc(Cl)cc(Cl)c1OCC(=O)O)=C1SC(=S)NC1=O [Example 80, 2,4-Dichloro-6-[3-(4-oxo-2-thioxo-5-thiazolinylidene)-1-butenyl]phenoxyacetic acid]
  inhibition at 10 µM: 86.6%
  inhibition at 1 µM: 43%

## COc1ccc(C=CC(CCCC(=O)O)=C2SC(=S)NC2=O)cc1OC (single isomer, unassigned) [38 Isomer A]
  inhibition at 10 µM: 95.7%
  inhibition at 1 µM: 86.8%

## CCCCCCC(CCc1ccc(CCC(=O)O)cc1)=C1SC(=S)NC1=O (single isomer, unassigned) [33 Isomer A]
  inhibition at 10 µM: 42.9%

## COC(=O)COc1ccc(C=CC(C)=C2SC(=S)NC2=O)cc1OCC(=O)OC (single isomer, unassigned) [60 Isomer A]
  inhibition at 10 µM: 61.5%
  inhibition at 1 µM: 27.7%

## COC(=O)c1ccccc1NC(=O)C(C)=C1SC(=S)NC1=O [Example 18, Methyl N-[2-(4-oxo-2-thioxo-5-thiazolidinylidene)propionyl]anthranilate]
  inhibition at 10 µM: 84%
  inhibition at 1 µM: 62.6%

## COC(=O)COc1c(OC)cc(C=CC(C)=C2SC(=S)NC2=O)cc1OC [Example 48, Methyl 2,6-dimethoxy-4-[3-(4-oxo-2-thioxo-5-thiazolinylidene)-1-butenyl]phenoxyacetate]
  inhibition at 10 µM: 69.1%

## CC(C=Cc1ccc(OCC(=O)O)c(OCC(=O)O)c1)=C1SC(=S)NC1=O (single isomer, unassigned) [83 Isomer B]
10^-5 M
  Percentage of inhibition (%): 75.8%
10^-6 M
  Percentage of inhibition (%): 36.8%

## O=C(O)CCC(C=Cc1cccs1)=C1SC(=S)NC1=O [Example 30, 6-(2-Thienyl)-4-(4-oxo-2-thioxo-5-thiazolidinylidene)-5-hexenoic acid]
  inhibition at 10 µM: 73%

## O=C(O)CCC(C=Cc1ccco1)=C1SC(=S)NC1=O [Example 35, 6-(2-Furyl)-4-(4-oxo-2-thioxo-5-thiazolidinylidene)-5-hexenoic acid]
  inhibition at 10 µM: 72.3%

## CCOC(=O)CCC(C=Cc1ccc(C(=O)OC)cc1)=C1SC(=S)NC1=O [Example 12, Ethyl 6-(4-methoxycarbonylphenyl)-4-(4-oxo-2-thioxo-5-thiazolidinylidene)-5-hexenoate]
  inhibition at 10 µM: 42.8%

## CC(C=Cc1cc(Br)cc(Br)c1OCC(=O)O)=C1SC(=S)NC1=O [Example 81, 2,4-Dibromo-6-[3-(4-oxo-2-thioxo-5-thiazolinylidene)-1-butenyl]phenoxyacetic acid]
  inhibition at 10 µM: 75.4%

## COC(=O)COc1ccc(Cl)cc1C=CC(C)=C1SC(=S)NC1=O [Example 49, Methyl 4-chloro-2-[3-(4-oxo-2-thioxo-5-thiazolinylidene)-1-butenyl]phenoxyacetate]
  inhibition at 10 µM: 80%
  inhibition at 1 µM: 30.5%

## CCCC(CCc1ccccc1OCC(=O)O)=C1SC(=S)NC1=O (single isomer, unassigned) [27 Isomer B]
10^-5 M
  Percentage of inhibition (%): 83.8%
10^-6 M
  Percentage of inhibition (%): 45.9%

## CCOC(=O)CCC(C=Cc1cccc(O)c1)=C1SC(=S)NC1=O (single isomer, unassigned) [8 Isomer A]
  inhibition at 10 µM: 57.9%

## CCCCCCC(C=Cc1ccc(C(=O)O)cc1)=C1SC(=S)NC1=O (single isomer, unassigned) [26 Isomer B]
10^-5 M
  Percentage of inhibition (%): 52.1%

## CC(C=Cc1ccc(OCC(=O)O)c(OCC(=O)O)c1)=C1SC(=S)NC1=O (single isomer, unassigned) [83 Isomer A]
  inhibition at 10 µM: 82.4%
  inhibition at 1 µM: 43.4%

## COC(=O)COc1ccccc1C=CC(C)=C1SC(=S)NC1=O [Example 40, Methyl 2-[3-(4-oxo-2-thioxo-5-thiazolinylidene)-1-butenyl]phenoxyacetate]
  inhibition at 10 µM: 38.8%

## CCOc1cc(CCC(C)=C2SC(=S)NC2=O)ccc1OCC(=O)O [Example 71, 2-Ethoxy-4-[3-(4-oxo-2-thioxo-5-thiazolinylidene)butyl]phenoxyacetic acid]
  inhibition at 10 µM: 73.8%

## CC(CCCC(=O)Nc1ccccc1C(=O)O)=C1SC(=S)NC1=O [Example 37, N-[5-(4-Oxo-2-thioxo-5-thiazolidinylidene)hexanoyl]anthranilic acid]
  inhibition at 10 µM: 56.4%
